Experimental findings from ChEMBL document CHEMBL1201862, “PubChem BioAssay data set” (2004) are described below.

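Test compounds were applied to cells in 96-well plates for 48 hours at 5 doses. GI50: concentration for 50% inhibition of growth.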 Active and inactive are the calls of the source. No stated cut-off is given here; in the data, active = GI50 up to about 1.1 µM and inactive = higher.

Test systems include NCI-H522; Hs-578T; HCT-116; MDA-N; SK-MEL-2; A549; UACC-62; 786-0; HOP-62; NCI/ADR-RES; SN12C; MDA-MB-231; COLO 205; SF-295; K562; LOX IMVI; CCRF-CEM; OVCAR-5; SF-268; T47D.
What all share (experiment): NCI anticancer screen, dose series, 48 h

Consider `Cc1cc(O)ccc1C1(c2ccc(F)cc2)OC(=O)c2ccccc21` (stereo not given), for which the GI50 with NCI-H522 was 0.646 µM (active); with Hs-578T, 0.263 µM (active); in the assay on HCT-116, 3.21 µM (inactive); in the assay with MDA-N, 11.6 µM (inactive); in the assay on SK-MEL-2, 3.93 µM (inactive); with A549, 5.24 µM (inactive). For the same compound, the GI50 with UACC-62 was 3.39 µM (inactive); in the assay with 786-0 it was 8.47 µM (inactive); in the assay on HOP-62, 5.65 µM (inactive); in the assay on NCI/ADR-RES it was 0.415 µM (active); with SN12C it was 0.485 µM (active); with MDA-MB-231, 7.01 µM (inactive). For the same compound, the GI50 is 1.82 µM (inactive) with COLO 205; 3.48 µM (inactive) in the assay on SF-295; 6.87 µM (inactive) with K562; 2.31 µM (inactive) in the assay with LOX IMVI; 28.3 µM (inactive) in the assay on CCRF-CEM; 6.64 µM (inactive) in the assay on OVCAR-5. Moreover, the GI50 with SF-268 was 7.73 µM (inactive); in the assay on T47D it was 0.318 µM (active).

As to `CCCCC(=O)Oc1ccc2c(C)cc(=O)oc2c1`, the GI50 in the assay with NCI-H522, in the assay with Hs-578T, in the assay on HCT-116, in the assay with MDA-N, in the assay on SK-MEL-2 and in the assay on A549 was > 100 µM (inactive) in each case. Also, the GI50 in the assay with UACC-62, with 786-0, with HOP-62, in the assay with NCI/ADR-RES, in the assay with SN12C and with MDA-MB-231 was > 100 µM (inactive) each time. Also, the GI50 with COLO 205, with SF-295, in the assay on K562, with LOX IMVI, in the assay with CCRF-CEM and with OVCAR-5 was > 100 µM (inactive) throughout. In addition, the GI50 in the assay with SF-268 and with T47D was > 100 µM (inactive) each time.

Turning to `CN(C)CCNC1=Nc2ccccc2C(=O)N2CSCC12` (stereo not given), the GI50 in the assay with NCI-H522, in the assay on Hs-578T, in the assay on HCT-116, in the assay on MDA-N, in the assay with SK-MEL-2 and with A549 was > 100 µM (inactive) throughout. Moreover, the GI50 in the assay on UACC-62, with 786-0, in the assay with HOP-62, with NCI/ADR-RES, in the assay with SN12C and in the assay with MDA-MB-231 was > 100 µM (inactive) each time. Moreover, the GI50 with COLO 205, with SF-295, with K562, in the assay with LOX IMVI, with CCRF-CEM and in the assay with OVCAR-5 was > 100 µM (inactive) each time. In addition, the GI50 in the assay with SF-268 and in the assay on T47D was > 100 µM (inactive) throughout.

Consider `COc1ccc(C2NC(=S)Nc3c2c(=O)oc2c3ccc3ccccc32)cc1` (stereo not given), for which the GI50 is > 100 µM (inactive) with NCI-H522; 75.7 µM (inactive) with Hs-578T; 78.2 µM (inactive) in the assay with HCT-116; 76.9 µM (inactive) in the assay on MDA-N; 44.1 µM (inactive) with SK-MEL-2; 52.1 µM (inactive) in the assay on A549. The GI50 with UACC-62 is 45.7 µM (inactive); in the assay on 786-0, 80.7 µM (inactive); in the assay with HOP-62, 87.9 µM (inactive); in the assay on NCI/ADR-RES it was 81.5 µM (inactive); with SN12C it was 88.5 µM (inactive); with MDA-MB-231, 57.8 µM (inactive). Also, the GI50 was > 100 µM (inactive) in the assay with COLO 205; 59.3 µM (inactive) with SF-295; 56.9 µM (inactive) with K562; > 100 µM (inactive) in the assay on LOX IMVI; 46 µM (inactive) in the assay on CCRF-CEM; > 100 µM (inactive) in the assay with OVCAR-5. The GI50 in the assay on SF-268 is > 100 µM (inactive); in the assay on T47D, 50.6 µM (inactive).

For the compound `CSCCC(NCc1c(O)ccc2ccc(=O)oc12)C(=O)O` (stereo not given), the GI50 is > 100 µM (inactive) with NCI-H522; 4.78 µM (inactive) with Hs-578T; > 100 µM (inactive) in the assay with HCT-116; > 100 µM (inactive) in the assay on MDA-N; > 100 µM (inactive) in the assay on SK-MEL-2; > 100 µM (inactive) in the assay on A549. Further, the GI50 with UACC-62, in the assay with 786-0, in the assay on HOP-62, in the assay on NCI/ADR-RES, with SN12C and in the assay with MDA-MB-231 was > 100 µM (inactive) each time. Moreover, the GI50 in the assay on COLO 205, in the assay with SF-295, with K562, in the assay with LOX IMVI, in the assay with CCRF-CEM and in the assay on OVCAR-5 was > 100 µM (inactive) in each case. Besides, the GI50 in the assay on SF-268 and in the assay on T47D was > 100 µM (inactive) in each case.

As for `CCc1n[nH]c(=O)n1/N=C/c1ccccc1Cl`, the GI50 is > 100 µM (inactive) with NCI-H522; 2.69 µM (inactive) in the assay with Hs-578T; > 100 µM (inactive) in the assay on HCT-116; > 100 µM (inactive) with MDA-N; > 100 µM (inactive) with SK-MEL-2; > 100 µM (inactive) in the assay with A549. The GI50 was 53.6 µM (inactive) with UACC-62; > 100 µM (inactive) with 786-0; 76.2 µM (inactive) in the assay with HOP-62; > 100 µM (inactive) in the assay on NCI/ADR-RES; > 100 µM (inactive) in the assay on SN12C; > 100 µM (inactive) in the assay with MDA-MB-231. Moreover, the GI50 with COLO 205, in the assay on SF-295, with K562, in the assay with LOX IMVI, with CCRF-CEM and in the assay with OVCAR-5 was > 100 µM (inactive) throughout. Also, the figures for the GI50 with SF-268 and in the assay with T47D were 50 µM (inactive) and > 100 µM (inactive), respectively.

With `CC[C@H](C)[C@H]1NC(=O)[C@@H](NC(=O)[C@@H](CC(C)C)N(C)C(=O)C2CCCN2C(=O)[C@H](C)O)[C@@H](C)OC(=O)[C@@H]2Cc3ccccc3CN2C(=O)[C@@H]2CCCN2C(=O)[C@H](CC(C)C)NC(=O)[C@@H](C)C(=O)[C@H](C(C)C)OC(=O)C[C@@H]1O` (stereo not given in full), the GI50 was 0.443 µM (active) in the assay on NCI-H522; 0.314 µM (active) in the assay with Hs-578T; 0.144 µM (active) in the assay on HCT-116; 0.388 µM (active) in the assay with MDA-N; 0.205 µM (active) in the assay on SK-MEL-2; 0.434 µM (active) with A549. The GI50 in the assay on UACC-62 was 0.106 µM (active); in the assay on 786-0 it was 0.368 µM (active); in the assay with HOP-62 it was 0.385 µM (active); with NCI/ADR-RES it was > 100 µM (inactive); with SN12C it was 0.271 µM (active); in the assay on MDA-MB-231, 1.04 µM (active). Further, the GI50 is 0.269 µM (active) in the assay with COLO 205; 1.06 µM (active) in the assay with SF-295; 0.175 µM (active) in the assay with K562; 0.361 µM (active) in the assay with LOX IMVI; 0.106 µM (active) in the assay with CCRF-CEM; 0.822 µM (active) with OVCAR-5. Besides, the GI50 with SF-268 was 0.327 µM (active); with T47D it was 0.323 µM (active).

Take `CCCC(=O)Nc1cc(/C=C/C(=O)N2CC(CCl)c3ccc(N)cc32)n(C)c1` (stereo not given): the GI50 with NCI-H522 is < 0.0113 µM (active); in the assay on Hs-578T, 0.277 µM (active); in the assay with HCT-116, 0.129 µM (active); with MDA-N, 0.219 µM (active); with SK-MEL-2 it was 0.212 µM (active); in the assay with A549, 0.0294 µM (active). The GI50 in the assay with UACC-62 was 0.092 µM (active); in the assay with 786-0 it was 0.107 µM (active); in the assay with HOP-62 it was 0.484 µM (active); in the assay with NCI/ADR-RES, 0.447 µM (active); with SN12C it was 0.317 µM (active); in the assay on MDA-MB-231, 0.275 µM (active). Besides, the GI50 was 0.134 µM (active) with COLO 205; 0.214 µM (active) with SF-295; 0.116 µM (active) in the assay on K562; 0.148 µM (active) with LOX IMVI; 0.195 µM (active) with CCRF-CEM; 0.375 µM (active) in the assay with OVCAR-5. The GI50 with SF-268 is 0.259 µM (active); in the assay on T47D, 0.158 µM (active).
